According to ChEMBL document CHEMBL3751706, “Synthesis, biological studies and molecular dynamics of new anticancer RGD-based peptide conjugates for targeted drug delivery” (Bioorg Med Chem, 2016):
Calls of active or inactive are those of the source. No cut-off for these calls is given here.

Key:
[1] = Chemical stability of the compound at pH 7.4 assessed as half life by LC-MS analysis; type: physicochemical; settings: buffer
[2] = Chemical stability of the compound at pH 5.2 assessed as half life by LC-MS analysis; type: physicochemical; settings: buffer
B16-F10 [3] = test: Cytotoxicity against mouse B16F10 cells overexpressing alphavbeta3 integrin at 50 to 100 uM after 24 hrs by XTT assay; type: functional, cell-based
NCI-H1299 [4] = test: Cytotoxicity against human H1299 cells overexpressing alphavbeta3 integrin at >50 uM after 24 hrs by XTT assay; type: functional, cell-based
HEK293 [5] = test: Cytotoxicity against HEK293 […] cells non-expressing alphavbeta3 integrin after 24 hrs by XTT assay; type: cell-based; settings: human, hek293, 24 h
Liver [6] = test: Drug metabolism in mouse liver homogenates assessed as time duration for drug release at 37 degC by LC-MS analysis; type: ADME, tissue-based; settings: tissue homogenate
Liver [7] = test: Drug metabolism in mouse liver homogenates assessed as half life for drug release at 37 degC by LC-MS analysis; type: ADME, tissue-based; settings: tissue homogenate
[8] = Half life in mouse liver homogenates by LC-MS analysis; type: ADME, tissue-based; settings: liver homogenate
B16-F10 [9] = test: Cytotoxicity against mouse B16F10 cells overexpressing alphavbeta3 integrin up to 50 uM after 24 hrs by XTT assay; type: functional, cell-based
NCI-H1299 [10] = test: Cytotoxicity against human H1299 cells overexpressing alphavbeta3 integrin at up to 50 uM after 24 hrs by XTT assay; type: functional, cell-based
HEK293 [11] = test: Cytotoxicity against HEK293 […] cells non-expressing alphavbeta3 integrin up to 50 uM after 24 hrs by XTT assay; type: cell-based; settings: human, hek293, 24 h

Row | Structure (SMILES) | half-life [1] | half-life [2] | Activity (B16-F10 [3]) | Activity (NCI-H1299 [4]) | Activity (HEK293 [5]) | Time (Liver [6]) | t1/2 (Liver [7]) | Drug metabolism (Liver [6]) | half-life [8] | Activity (B16-F10 [9]) | Activity (NCI-H1299 [10]) | Activity (HEK293 [11])
1 | N=C(N)NCCC[C@@H]1NC(=O)[C@H](COC(=O)CCCc2ccc(N(CCCl)CCCl)cc2)NC(=O)[C@@H](Cc2ccccc2)NC(=O)[C@H](CC(=O)O)NC(=O)CNC1=O | < 12 h | < 12 h | Active | Active | Toxic | 45 min | 5 min | – | – | – | – | –
2 | N=C(N)NCCC[C@@H]1NC(=O)[C@H](CCCCNC(=O)CCCc2ccc(N(CCCl)CCCl)cc2)NC(=O)[C@@H](Cc2ccccc2)NC(=O)[C@H](CC(=O)O)NC(=O)CNC1=O | < 12 h | < 12 h | Active | Active | – | – | – | metabolite_notdetected | – | – | – | –
3 | CC[C@@]1(O)C(=O)OCc2c1cc1n(c2=O)Cc2cc3ccccc3nc2-1 [CAMPTOTHECIN] | < 96 h | < 96 h | – | – | – | – | – | – | 1.75 h | Active | Active | Toxic
4 | CC[C@@]1(OC(=O)NCCCC[C@@H]2NC(=O)[C@@H](Cc3ccccc3)NC(=O)[C@H](CC(=O)O)NC(=O)CNC(=O)[C@H](CCCNC(=N)N)NC2=O)C(=O)OCc2c1cc1n(c2=O)Cc2cc3ccccc3nc2-1 | > 96 h | > 96 h | – | – | – | 10 min | 5 min | – | – | – | – | –
5 | O=C(O)CCCc1ccc(N(CCCl)CCCl)cc1 [CHLORAMBUCIL] | 3.33 h | 3.33 h | – | – | – | – | – | – | 1 h | – | – | –
